The source made the active and inactive calls. The rule behind the calls is not given here.
Tests used:
Kasumi 1 [1] = assay: SiHyT-mediated degrader activity at RNF149/PDL1 in human Kasumi 1 cells assessed as induction of PDL1 degradation at 1 uM pretreated with proteasome inhibitor, MG-132 for 4 hrs followed by incubation with compound for 24 hrs by western blot analysis; type: cell-based
Kasumi 1 [2] = assay: SiHyT-mediated degrader activity at RNF149/PDL1 in human Kasumi 1 cells assessed as increase in PDL1 degradation by measuring decrease in PDL1 expression incubated for 12 hrs by proteomics analysis; type: cell-based
Kasumi 1 [3] = assay: SiHyT-mediated degrader activity at RNF149/PDL1 in human Kasumi 1 cells assessed as induction of PDL1 degradation at 1 uM pretreated with E1 ligase inhibitor, PYR-41 for 4 hrs followed by incubation with compound for 24 hrs by western blot analysis; type: cell-based
Kasumi 1 [4] = assay: SiHyT-mediated degrader activity at RNF149/PDL1 in human Kasumi 1 cells assessed as induction of PDL1 degradation at 1 uM incubated for 3 to 24 hrs by western blot analysis; type: cell-based; details: time 3-24 hrs
Kasumi 1 [5] = assay: (§1) SiHyT-mediated degrader activity at RNF149/PDL1 in human Kasumi 1 cells assessed as induction of PDL1 degradation incubated for 24 hrs by western blot analysis; type: cell-based
[6] = as §1; type: cell-based; details: Kasumi 1, 24 h
Kasumi 1 [7] = assay: SiHyT-mediated degrader activity at RNF149/PDL1 in human Kasumi 1 cells assessed as reduction in half life of PDL1 at 1 uM incubated for 6 to 24 hrs in presence of protein synthesis inhibitor, CHX by western blot analysis; type: cell-based; details: time 6-24 hrs
Kasumi 1 [8] = assay: SiHyT-mediated degrader activity at RNF149/PDL1 in human Kasumi 1 cells assessed as increase in PDL1 ubiquitination pretreated with MG132 followed by incubation with compound for 9 hrs by immunoprecipitation based western blot analysis; type: cell-based
MOLM-13 [9] = assay: SiHyT-mediated degrader activity at RNF149/BTK in human MOLM-13 cells assessed as induction of BTK degradation at 2.5 uM incubated for 3 to 24 hrs by western blot analysis; type: cell-based; details: time 3-24 hrs
MOLM-13 [10] = assay: (§2) SiHyT-mediated degrader activity at RNF149/BTK in human MOLM-13 cells assessed as induction of BTK degradation incubated for 24 hrs by western blot analysis; type: cell-based
[11] = as §2; type: cell-based; details: MOLM-13, 24 h
MOLM-13 [12] = assay: SiHyT-mediated degrader activity at RNF149/BTK in human MOLM-13 cells assessed as reduction in half life of BTK at 2.5 uM incubated for 6 to 24 hrs in presence of protein synthesis inhibitor, CHX by western blot analysis; type: cell-based; details: time 6-24 hrs
MOLM-13 [13] = assay: SiHyT-mediated degrader activity at RNF149/BTK in human MOLM-13 cells assessed as increase in BTK ubiquitination pretreated with MG132 followed by incubation with compound for 9 hrs by immunoprecipitation based western blot analysis; type: cell-based
MOLM-13 [14] = assay: SiHyT-mediated degrader activity at RNF149/BTK in human MOLM-13 cells assessed as increase in BTK degradation by measuring decrease in BTK expression incubated for 12 hrs by proteomics analysis; type: cell-based
MOLM-13 [15] = assay: SiHyT-mediated degrader activity at RNF149/BTK in human MOLM-13 cells assessed as induction of BTK degradation at 2.5 uM pretreated with proteasome inhibitor, MG-132 for 4 hrs followed by incubation with compound for 24 hrs by western blot analysis; type: cell-based
MOLM-13 [16] = assay: SiHyT-mediated degrader activity at RNF149/BTK in human MOLM-13 cells assessed as induction of BTK degradation at 2.5 uM pretreated with E1 ligase inhibitor, PYR-41 for 4 hrs followed by incubation with compound for 24 hrs by western blot analysis; type: cell-based
[17] = tested on: E3 ubiquitin-protein ligase RNF149/Epidermal growth factor receptor (Homo sapiens), P00533+Q8NC42 [UNDEFINED MUTATION]; assay: SiHyT-mediated degrader activity at RNF149/EGFR mutant in human HCC827 cells assessed as induction of EGFR degradation at 1 uM cells incubated in serum-free media for 8 hrs followed by incubation with compound for 24 hrs by western blot analysis; type: cell-based
Chain of E3 ubiquitin-protein ligase RNF149/Epidermal growth factor receptor (Homo sapiens), P00533+Q8NC42 [UNDEFINED MUTATION] (P00533 whole entry, looked up, stated change not applied): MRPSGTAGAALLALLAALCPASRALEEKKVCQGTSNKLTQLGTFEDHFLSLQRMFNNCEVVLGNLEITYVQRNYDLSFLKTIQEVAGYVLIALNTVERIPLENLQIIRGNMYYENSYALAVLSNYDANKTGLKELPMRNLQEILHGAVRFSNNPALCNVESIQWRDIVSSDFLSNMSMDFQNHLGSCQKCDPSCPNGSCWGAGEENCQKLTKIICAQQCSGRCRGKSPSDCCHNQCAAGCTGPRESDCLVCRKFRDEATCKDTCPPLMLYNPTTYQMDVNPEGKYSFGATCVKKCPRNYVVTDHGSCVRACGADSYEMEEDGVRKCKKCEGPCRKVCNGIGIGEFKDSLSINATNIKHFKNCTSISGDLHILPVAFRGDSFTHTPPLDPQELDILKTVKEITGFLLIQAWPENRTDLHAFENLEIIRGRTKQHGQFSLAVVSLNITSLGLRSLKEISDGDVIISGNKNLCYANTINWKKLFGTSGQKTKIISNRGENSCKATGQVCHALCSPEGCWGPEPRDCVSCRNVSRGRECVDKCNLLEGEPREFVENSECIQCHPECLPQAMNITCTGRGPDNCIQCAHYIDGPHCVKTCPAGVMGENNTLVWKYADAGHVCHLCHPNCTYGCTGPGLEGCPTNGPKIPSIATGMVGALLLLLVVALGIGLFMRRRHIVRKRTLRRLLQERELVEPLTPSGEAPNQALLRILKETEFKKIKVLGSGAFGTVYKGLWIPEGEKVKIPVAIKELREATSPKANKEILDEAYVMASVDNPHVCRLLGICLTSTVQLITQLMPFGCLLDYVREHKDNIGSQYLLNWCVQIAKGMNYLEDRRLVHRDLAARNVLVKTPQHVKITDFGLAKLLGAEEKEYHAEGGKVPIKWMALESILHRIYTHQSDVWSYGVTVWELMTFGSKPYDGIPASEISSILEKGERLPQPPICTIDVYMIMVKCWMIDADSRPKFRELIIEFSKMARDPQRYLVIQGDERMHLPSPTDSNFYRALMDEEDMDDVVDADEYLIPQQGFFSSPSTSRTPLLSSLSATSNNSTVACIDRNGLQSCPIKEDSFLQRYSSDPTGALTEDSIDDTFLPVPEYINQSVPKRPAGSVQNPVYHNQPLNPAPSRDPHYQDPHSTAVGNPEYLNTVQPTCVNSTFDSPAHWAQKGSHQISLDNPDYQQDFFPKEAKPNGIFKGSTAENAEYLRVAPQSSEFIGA
Chain of E3 ubiquitin-protein ligase RNF149/Epidermal growth factor receptor (Homo sapiens), P00533+Q8NC42 [UNDEFINED MUTATION] (Q8NC42 whole entry, looked up, stated change not applied): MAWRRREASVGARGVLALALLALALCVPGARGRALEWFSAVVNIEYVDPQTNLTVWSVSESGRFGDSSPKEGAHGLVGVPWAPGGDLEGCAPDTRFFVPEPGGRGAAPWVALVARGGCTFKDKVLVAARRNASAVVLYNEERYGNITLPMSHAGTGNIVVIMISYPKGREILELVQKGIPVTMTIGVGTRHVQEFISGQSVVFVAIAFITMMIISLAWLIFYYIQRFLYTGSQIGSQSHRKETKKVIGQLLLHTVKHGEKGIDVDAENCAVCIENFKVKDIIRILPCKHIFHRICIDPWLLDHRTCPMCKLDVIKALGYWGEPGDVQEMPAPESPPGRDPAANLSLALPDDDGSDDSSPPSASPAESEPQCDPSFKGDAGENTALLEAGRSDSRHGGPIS

HCC827 [18] = assay: Antiproliferative activity against human HCC827 cells assessed as decrease in cell survival measured after 72 hrs by CCK-8 assay; type: functional, cell-based; details: HCC827, 72 h
[19] = tested on: E3 ubiquitin-protein ligase RNF149/Epidermal growth factor receptor (Homo sapiens), P00533+Q8NC42 [UNDEFINED MUTATION]; assay: SiHyT-mediated degrader activity at RNF149/EGFR mutant in human HCC827 cels assessed as induction of EGFR degradation at 0.1 uM cells incubated in serum-free media for 8 hrs followed by incubation with compound for 24 hrs by western blot analysis; type: cell-based
[20] = Intrinsic clearance of the compound in mouse liver microsomes at 1 uM in presence of NADPH by LC-MS/MS analysis; type: ADME, Microsome; details: read-out: CLH
[21] = Half life of the compound in mouse liver microsomes at 1 uM in presence of NADPH by LC-MS/MS analysis; type: ADME, Microsome
[22] = Half life of the compound in human liver microsomes at 1 uM in presence of NADPH by LC-MS/MS analysis; type: ADME, Microsome
[23] = Intrinsic clearance of the compound in human liver microsomes at 1 uM in presence of NADPH by LC-MS/MS analysis; type: ADME, Microsome; details: read-out: CLH
PC-9 [24] = assay: Antiproliferative activity against human PC-9 cells assessed as decrease in cell survival measured after 72 hrs by CCK-8 assay; type: functional, cell-based; details: PC-9, 72 h
PC-9 [25] = assay: Induction of cell cycle arrest in human PC-9 cells assessed as increase in cell accumulation at G1 phase at 0.01 to 0.1 uM incubated for 24 hrs by propidium iodide staining based flow cytometry; type: functional; details: dose 0.01-0.1 µM
HCC827 [26] = assay: Induction of cell cycle arrest in human HCC827 cells assessed as increase in cell accumulation at G1 phase at 0.01 to 0.1 uM incubated for 24 hrs by propidium iodide staining based flow cytometry; type: functional; details: dose 0.01-0.1 µM

Row | Structure (SMILES) | Activity [17] [%] | Activity [19] [%] | IC50 (HCC827 [18]) [nM] | further results
1 | COc1cc(OCc2cccc(-c3ccccc3)c2C)cc(OC)c1CNCc1cn(CCO[Si](c2ccccc2)(c2ccccc2)C(C)(C)C)nn1 |  |  |  | Activity (Kasumi 1 [1]): inactive; Activity (Kasumi 1 [2]): Active; Activity (Kasumi 1 [3]): inactive; Activity (Kasumi 1 [4]): Time-dependent-effect; Activity (Kasumi 1 [5]): Active; DC50 [6]: 510 nM; Activity (Kasumi 1 [7]): Active; Activity (Kasumi 1 [8]): Active
2 | CC(C)(C)[Si](OCCn1cc(CCC(=O)N2CCC[C@@H](n3nc(-c4ccc(Oc5ccccc5)cc4)c4c(N)ncnc43)C2)nn1)(c1ccccc1)c1ccccc1 |  |  |  | Activity (MOLM-13 [9]): Time-dependent-effect; Activity (MOLM-13 [10]): Active; DC50 [11]: 2780 nM; Activity (MOLM-13 [12]): Active; Activity (MOLM-13 [13]): Active; Activity (MOLM-13 [14]): Active; Activity (MOLM-13 [15]): inactive; Activity (MOLM-13 [16]): inactive
3 | COc1cc2ncnc(Nc3ccc(F)c(Cl)c3)c2cc1OCCCN1CCN(CCn2cc(CCCO[Si](C)(C)C3CCCCC3)nn2)CC1 | 13.7 | 0 | > 10000 | 
4 | CC[Si](CC)(CC)OCCCc1cn(CCOc2cc3c(Nc4ccc(F)c(Cl)c4)ncnc3cc2OC)nn1 | 79.1 | 38.2 | 330 | 
5 | COc1cc2ncnc(Nc3ccc(F)c(Cl)c3)c2cc1OCCn1cc(CCCO[Si](C)(C)C(C)(C)C)nn1 | 22.4 | 19.7 | 5620 | 
6 | COc1cc2ncnc(Nc3ccc(F)c(Cl)c3)c2cc1OCCn1cc(CCCO[Si](C)(C)C2CCCCC2)nn1 | 55.3 | 52.3 | 150 | 
7 | COc1cc2ncnc(Nc3ccc(F)c(Cl)c3)c2cc1OCCn1cc(CCCC(=O)NCC2CC3C=CC2C3)nn1 (configuration not stated) |  |  |  | CLint scaled at 1 µM [20]: 614 mL/min/kg; half-life at 1 µM [21]: 8.94 min; half-life at 1 µM [22]: 9.48 min; CLint scaled at 1 µM [23]: 132 mL/min/kg
8 | COc1cc2ncnc(Nc3ccc(F)c(Cl)c3)c2cc1OCCn1cc(CCO[Si](C)(C)C2CCCCC2)nn1 | 47 | 12.7 | 450 | 
9 | COc1cc2ncnc(Nc3ccc(F)c(Cl)c3)c2cc1OCCn1cc(CCCO[Si](C(C)C)(C(C)C)C(C)C)nn1 | 18.2 | 4.2 | 7460 | 
10 | O=C(O)Cc1ccccc1Nc1c(Cl)cccc1Cl [DICLOFENAC] |  |  |  | CLint scaled at 1 µM [20]: 109 mL/min/kg; half-life at 1 µM [21]: 50.2 min; half-life at 1 µM [22]: 6.96 min; CLint scaled at 1 µM [23]: 179 mL/min/kg
11 | COc1cc2ncnc(Nc3ccc(F)c(Cl)c3)c2cc1OCCn1cc(CCCNC(=O)CO[C@@H]2C[C@H](C)CC[C@H]2C(C)C)nn1 |  |  |  | CLint scaled at 1 µM [20]: 741 mL/min/kg; half-life at 1 µM [21]: 7.4 min; half-life at 1 µM [22]: 4.22 min; CLint scaled at 1 µM [23]: 295 mL/min/kg
12 | COc1cc2ncnc(Nc3ccc(F)c(Cl)c3)c2cc1OCCOCCO[Si](c1ccccc1)(c1ccccc1)C(C)(C)C | 0 | 0 | > 10000 | 
13 | COc1cc2ncnc(Nc3ccc(F)c(Cl)c3)c2cc1OCCCCCCCCO[Si](c1ccccc1)(c1ccccc1)C(C)(C)C | 0 | 0 | > 10000 | 
14 | COc1cc2ncnc(Nc3ccc(F)c(Cl)c3)c2cc1OCCn1cc(CCCCO[Si](C)(C)C2CCCCC2)nn1 | 53.2 | 46.1 | 700 | 
15 | COc1cc2ncnc(Nc3ccc(F)c(Cl)c3)c2cc1OCCOCCOCCO[Si](c1ccccc1)(c1ccccc1)C(C)(C)C | 20.1 | 0 | > 10000 | 
16 | COc1cc2ncnc(Nc3ccc(F)c(Cl)c3)c2cc1OCCCN1CCN(CCn2cc(CCCCO[Si](C)(C)C3CCCCC3)nn2)CC1 | 18.4 | 0 | > 10000 | 
17 | COc1cc2ncnc(Nc3ccc(F)c(Cl)c3)c2cc1OCCn1cc(CCCNC(=O)CC23CC4CC(CC(C4)C2)C3)nn1 |  |  |  | CLint scaled at 1 µM [20]: 5230 mL/min/kg; half-life at 1 µM [21]: 1.05 min; half-life at 1 µM [22]: 1.81 min; CLint scaled at 1 µM [23]: 690 mL/min/kg
18 | COc1cc2ncnc(Nc3ccc(F)c(Cl)c3)c2cc1OCCCN1CCOCC1 [GEFITINIB] |  |  |  | IC50 (PC-9 [24]): 13 nM; Activity (PC-9 [25]): Dose-dependent-effect; Activity (HCC827 [26]): Dose-dependent-effect

Now from value to molecule, other results behind:

Row | Activity [17] [%] | Activity [19] [%] | Structure (SMILES) | IC50 (HCC827 [18]) [nM] | further results
19 | 58 | 0 | COc1cc2ncnc(Nc3ccc(F)c(Cl)c3)c2cc1OCCCN1CCN(CCn2cc(CCO[Si](c3ccccc3)(c3ccccc3)C(C)(C)C)nn2)CC1 | 990 | 
20 | 58.4 | 28 | COc1cc2ncnc(Nc3ccc(F)c(Cl)c3)c2cc1OCCn1cc(CCCCO[Si](c2ccccc2)(c2ccccc2)C(C)(C)C)nn1 | 110 | 
21 | 0 | 0 | COc1cc2ncnc(Nc3ccc(F)c(Cl)c3)c2cc1OCCCCCCCO[Si](c1ccccc1)(c1ccccc1)C(C)(C)C | > 10000 | 
22 | 0 | 0 | COc1cc2ncnc(Nc3ccc(F)c(Cl)c3)c2cc1OCCCN1CCN(CCCO[Si](c2ccccc2)(c2ccccc2)C(C)(C)C)CC1 | > 10000 | 
23 | 16.8 | 0 | COc1cc2ncnc(Nc3ccc(F)c(Cl)c3)c2cc1OCCCN1CCN(CCO[Si](c2ccccc2)(c2ccccc2)C(C)(C)C)CC1 | > 10000 | 
24 | 10.8 | 0 | COc1cc2ncnc(Nc3ccc(F)c(Cl)c3)c2cc1OCCCN1CCN(CCn2cc(CCCO[Si](c3ccccc3)(c3ccccc3)C(C)(C)C)nn2)CC1 | 1580 | 
25 | 72.1 | 46.4 | COc1cc2ncnc(Nc3ccc(F)c(Cl)c3)c2cc1OCCn1cc(CCO[Si](c2ccccc2)(c2ccccc2)C(C)(C)C)nn1 | 140 | 
26 | 0 | 0 | COc1cc2ncnc(Nc3ccc(F)c(Cl)c3)c2cc1OCCCN1CCN(CCn2cc(CCCCO[Si](c3ccccc3)(c3ccccc3)C(C)(C)C)nn2)CC1 | 3040 | 

Source: ChEMBL document CHEMBL6074674, “Development of Novel Silicon-Based Hydrophobic Tags (SiHyT) for Targeted Proteins Degradation” (J Med Chem, 2024)
